Numbers after ± are expanded uncertainties.
Settings: Liquid, Vibrating tube method

SMILES: CC(C)CCOCCC(C)C [di-(3-methylbutyl) ether]
- mass density (283.15 K, 100 kPa): 782.76 ± 0.3 kg/m3
- mass density (283.15 K, 5000 kPa): 786.88 ± 0.32 kg/m3
- mass density (283.15 K, 10000 kPa): 790.71 ± 0.35 kg/m3
- mass density (283.15 K, 15000 kPa): 794.36 ± 0.38 kg/m3
- mass density (283.15 K, 20000 kPa): 797.85 ± 0.41 kg/m3
- mass density (283.15 K, 25000 kPa): 801.22 ± 0.44 kg/m3
- mass density (283.15 K, 30000 kPa): 804.45 ± 0.47 kg/m3
- mass density (283.15 K, 35000 kPa): 807.58 ± 0.5 kg/m3
- mass density (283.15 K, 40000 kPa): 810.61 ± 0.53 kg/m3
- mass density (283.15 K, 45000 kPa): 813.52 ± 0.56 kg/m3
- mass density (283.15 K, 50000 kPa): 816.37 ± 0.59 kg/m3
- mass density (283.15 K, 55000 kPa): 819.14 ± 0.62 kg/m3
- mass density (283.15 K, 60000 kPa): 821.82 ± 0.65 kg/m3
- mass density (283.15 K, 65000 kPa): 824.44 ± 0.68 kg/m3
- mass density (288.15 K, 100 kPa): 778.71 ± 0.3 kg/m3
- mass density (288.15 K, 5000 kPa): 782.95 ± 0.32 kg/m3
- mass density (288.15 K, 10000 kPa): 786.89 ± 0.35 kg/m3
- mass density (288.15 K, 15000 kPa): 790.64 ± 0.38 kg/m3
- mass density (288.15 K, 20000 kPa): 794.22 ± 0.41 kg/m3
- mass density (288.15 K, 25000 kPa): 797.65 ± 0.44 kg/m3
- mass density (288.15 K, 30000 kPa): 800.95 ± 0.47 kg/m3
- mass density (288.15 K, 35000 kPa): 804.15 ± 0.5 kg/m3
- mass density (288.15 K, 40000 kPa): 807.23 ± 0.53 kg/m3
- mass density (288.15 K, 45000 kPa): 810.19 ± 0.57 kg/m3
- mass density (288.15 K, 50000 kPa): 813.09 ± 0.6 kg/m3
- mass density (288.15 K, 55000 kPa): 815.91 ± 0.63 kg/m3
- mass density (288.15 K, 60000 kPa): 818.64 ± 0.66 kg/m3
- mass density (288.15 K, 65000 kPa): 821.33 ± 0.68 kg/m3
- mass density (293.15 K, 100 kPa): 774.66 ± 0.3 kg/m3
- mass density (293.15 K, 5000 kPa): 779.03 ± 0.32 kg/m3
- mass density (293.15 K, 10000 kPa): 783.04 ± 0.35 kg/m3
- mass density (293.15 K, 15000 kPa): 786.89 ± 0.38 kg/m3
- mass density (293.15 K, 20000 kPa): 790.55 ± 0.41 kg/m3
- mass density (293.15 K, 25000 kPa): 794.08 ± 0.44 kg/m3
- mass density (293.15 K, 30000 kPa): 797.46 ± 0.47 kg/m3
- mass density (293.15 K, 35000 kPa): 800.71 ± 0.51 kg/m3
- mass density (293.15 K, 40000 kPa): 803.86 ± 0.54 kg/m3
- mass density (293.15 K, 45000 kPa): 806.9 ± 0.57 kg/m3
- mass density (293.15 K, 50000 kPa): 809.84 ± 0.6 kg/m3
- mass density (293.15 K, 55000 kPa): 812.71 ± 0.63 kg/m3
- mass density (293.15 K, 60000 kPa): 815.48 ± 0.66 kg/m3
- mass density (293.15 K, 65000 kPa): 818.18 ± 0.69 kg/m3
- mass density (298.15 K, 100 kPa): 770.6 ± 0.3 kg/m3
- mass density (298.15 K, 5000 kPa): 775.09 ± 0.33 kg/m3
- mass density (298.15 K, 10000 kPa): 779.24 ± 0.36 kg/m3
- mass density (298.15 K, 15000 kPa): 783.18 ± 0.39 kg/m3
- mass density (298.15 K, 20000 kPa): 786.94 ± 0.42 kg/m3
- mass density (298.15 K, 25000 kPa): 790.54 ± 0.45 kg/m3
- mass density (298.15 K, 30000 kPa): 793.99 ± 0.48 kg/m3
- mass density (298.15 K, 35000 kPa): 797.31 ± 0.51 kg/m3
- mass density (298.15 K, 40000 kPa): 800.51 ± 0.54 kg/m3
- mass density (298.15 K, 45000 kPa): 803.61 ± 0.58 kg/m3
- mass density (298.15 K, 50000 kPa): 806.62 ± 0.61 kg/m3
- mass density (298.15 K, 55000 kPa): 809.51 ± 0.64 kg/m3
- mass density (298.15 K, 60000 kPa): 812.33 ± 0.67 kg/m3
- mass density (298.15 K, 65000 kPa): 815.07 ± 0.7 kg/m3
- mass density (303.15 K, 100 kPa): 766.54 ± 0.3 kg/m3
- mass density (303.15 K, 5000 kPa): 771.15 ± 0.33 kg/m3
- mass density (303.15 K, 10000 kPa): 775.41 ± 0.36 kg/m3
- mass density (303.15 K, 15000 kPa): 779.46 ± 0.39 kg/m3
- mass density (303.15 K, 20000 kPa): 783.3 ± 0.42 kg/m3
- mass density (303.15 K, 25000 kPa): 786.98 ± 0.45 kg/m3
- mass density (303.15 K, 30000 kPa): 790.53 ± 0.48 kg/m3
- mass density (303.15 K, 35000 kPa): 793.91 ± 0.51 kg/m3
- mass density (303.15 K, 40000 kPa): 797.19 ± 0.55 kg/m3
- mass density (303.15 K, 45000 kPa): 800.34 ± 0.58 kg/m3
- mass density (303.15 K, 50000 kPa): 803.4 ± 0.62 kg/m3
- mass density (303.15 K, 55000 kPa): 806.36 ± 0.65 kg/m3
- mass density (303.15 K, 60000 kPa): 809.23 ± 0.68 kg/m3
- mass density (303.15 K, 65000 kPa): 812.01 ± 0.71 kg/m3
- mass density (308.15 K, 100 kPa): 762.46 ± 0.3 kg/m3
- mass density (308.15 K, 5000 kPa): 767.21 ± 0.33 kg/m3
- mass density (308.15 K, 10000 kPa): 771.57 ± 0.36 kg/m3
- mass density (308.15 K, 15000 kPa): 775.74 ± 0.39 kg/m3
- mass density (308.15 K, 20000 kPa): 779.67 ± 0.42 kg/m3
- mass density (308.15 K, 25000 kPa): 783.45 ± 0.45 kg/m3
- mass density (308.15 K, 30000 kPa): 787.05 ± 0.48 kg/m3

— the NIST ThermoML archive (doi:10.1016/j.fluid.2016.02.009)
